Source: PubChem BioAssay AID248 (DTP/NCI, 2004)
Values joined by “and” are separate entries in the source; they are usually repeats but may differ in a detail not shown here. Identical values can stand only once. Toxic doses and inconclusive results are not listed. No stated cut-off is given here; in the data, active means T/C of 150% or more; inactive means T/C below 125%.

Tested on: L1210 leukemia ip in BDF1 mice, survival T/C
Assay: NCI In Vivo Anticancer Drug Screen. Data for tumor model L1210 Leukemia (intraperitoneal) in B6D2F1 (BDF1) mice
Conditions: endpoint: mean survival time, higher = longer survival
Method in brief: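 In this screen, tumor-bearing mice given compound are compared to those given vehicle, and their survival values are reported as a treated-to-control quotient.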

[1] = dose: 100.0 mg/kg/injection, schedule: Q04DX002 (ip), vehicle: saline
[2] = dose: 200.0 mg/kg/injection, schedule: Q04DX002 (ip), vehicle: saline
[3] = dose: 400.0 mg/kg/injection, schedule: Q04DX002 (ip), vehicle: saline
[4] = dose: 100.0 mg/kg/injection, schedule: Q04DX003 (ip), vehicle: acetone
[5] = dose: 200.0 mg/kg/injection, schedule: Q04DX003 (ip), vehicle: acetone
[6] = dose: 400.0 mg/kg/injection, schedule: Q04DX003 (ip), vehicle: acetone
[7] = dose: 100.0 mg/kg/injection, schedule: Q04DX003 (ip), vehicle: saline
[8] = dose: 100.0 mg/kg/injection, schedule: Q01DX001 (ip), vehicle: saline
[9] = dose: 200.0 mg/kg/injection, schedule: Q01DX001 (ip), vehicle: saline
[10] = dose: 400.0 mg/kg/injection, schedule: Q01DX001 (ip), vehicle: saline
[11] = dose: 100.0 mg/kg/injection, schedule: Q01DX009 (ip), vehicle: saline with Tween-80
[12] = dose: 200.0 mg/kg/injection, schedule: Q01DX009 (ip), vehicle: saline with Tween-80
[13] = dose: 400.0 mg/kg/injection, schedule: Q01DX009 (ip), vehicle: saline with Tween-80
[14] = dose: 100.0 mg/kg/injection, schedule: Q01DX001 (ip), vehicle: carboxymethylcellulose (CMC)
[15] = dose: 200.0 mg/kg/injection, schedule: Q01DX001 (ip), vehicle: carboxymethylcellulose (CMC)
[16] = dose: 400.0 mg/kg/injection, schedule: Q01DX001 (ip), vehicle: carboxymethylcellulose (CMC)

Measured: T/C

NCC1CCNCC1
inactive: dose: 25.0 mg/kg/injection, schedule: Q04DX002 (ip), vehicle: saline 103 % of control | dose: 50.0 mg/kg/injection, schedule: Q04DX002 (ip), vehicle: saline 97 % of control and 100 % of control | [1] 103 % of control and 106 % of control | [2] 102 % of control and 90 % of control | [3] 97 % of control

CC1=C/C(=N/Nc2ccc([N+](=O)[O-])cc2[N+](=O)[O-])CCC1
inactive: dose: 50.0 mg/kg/injection, schedule: Q01DX009 (ip), vehicle: acetone 93 % of control | dose: 100.0 mg/kg/injection, schedule: Q01DX009 (ip), vehicle: acetone 88 % of control | [4] 93 % of control | [5] 86 % of control | [6] 86 % of control

N#Cc1cnn(C(N)=S)c1N
inactive: dose: 25.0 mg/kg/injection, schedule: Q01DX009 (ip), vehicle: saline 88 % of control | dose: 25.0 mg/kg/injection, schedule: Q04DX003 (ip), vehicle: saline 94 % of control | dose: 50.0 mg/kg/injection, schedule: Q01DX009 (ip), vehicle: saline 97 % of control | dose: 50.0 mg/kg/injection, schedule: Q04DX003 (ip), vehicle: saline 110 % of control | [7] 98 % of control

N#CC(c1ccc(Cl)cc1)c1ccc(N(CCO)CCO)cc1 (centres undefined)
inactive: [8] 99 % of control | [4] 103 % of control | [9] 99 % of control | [5] 97 % of control | [10] 86 % of control | [6] 91 % of control

C=CCCCCCCCCC(=O)NCc1cccnc1
inactive: [11] 96 % of control | [12] 94 % of control | [13] 102 % of control

Cc1ccccc1NC(=O)Oc1ccc(Cl)cc1Cl
inactive: dose: 100.0 mg/kg/injection, schedule: Q04DX002 (ip), vehicle: gum acacia 107 % of control | dose: 200.0 mg/kg/injection, schedule: Q04DX002 (ip), vehicle: gum acacia 100 % of control | dose: 400.0 mg/kg/injection, schedule: Q04DX002 (ip), vehicle: gum acacia 104 % of control

CC1OC=CC(O)C1O (centres undefined)
inactive: dose: 50.0 mg/kg/injection, schedule: Q01DX001 (ip), vehicle: saline 94 % of control | [8] 100 % of control | [9] 105 % of control | [10] 97 % of control

NC(=O)C[n+]1ccccc1
inactive: [8] 106 % of control | [9] 98 % of control | [10] 97 % of control

Cc1ccc(C2(O)CCN(CCCC(=O)c3ccc(F)cc3)CC2)cc1
inactive: dose: 3.12 mg/kg/injection, schedule: Q01DX009 (ip), vehicle: Klucel (hydroxypropylcellulose) (HPC) 101 % of control | dose: 6.25 mg/kg/injection, schedule: Q01DX009 (ip), vehicle: Klucel (hydroxypropylcellulose) (HPC) 104 % of control | dose: 12.5 mg/kg/injection, schedule: Q01DX009 (ip), vehicle: Klucel (hydroxypropylcellulose) (HPC) 101 % of control | dose: 25.0 mg/kg/injection, schedule: Q01DX009 (ip), vehicle: Klucel (hydroxypropylcellulose) (HPC) 113 % of control | dose: 50.0 mg/kg/injection, schedule: Q01DX009 (ip), vehicle: Klucel (hydroxypropylcellulose) (HPC) 104 % of control

Cc1cc(=O)[nH]c2c1ccc1[nH]c(=O)cc(C)c12
inactive: dose: 100.0 mg/kg/injection, schedule: Q01DX001 (ip), vehicle: Klucel (hydroxypropylcellulose) (HPC) 91 % of control | dose: 100.0 mg/kg/injection, schedule: Q04DX003 (ip), vehicle: Klucel (hydroxypropylcellulose) (HPC) 95 % of control | dose: 200.0 mg/kg/injection, schedule: Q01DX001 (ip), vehicle: Klucel (hydroxypropylcellulose) (HPC) 94 % of control | dose: 400.0 mg/kg/injection, schedule: Q01DX001 (ip), vehicle: Klucel (hydroxypropylcellulose) (HPC) 91 % of control | dose: 400.0 mg/kg/injection, schedule: Q04DX003 (ip), vehicle: Klucel (hydroxypropylcellulose) (HPC) 86 % of control

Clc1cccc(Cl)c1/C=N/N1CCN(/N=C/c2c(Cl)cccc2Cl)CC1
inactive: [14] 91 % of control | [15] 89 % of control | [16] 91 % of control

Cc1ccc[n+]([O-])c1N=[N+]=[N-]
inactive: [7] 102 % of control | dose: 200.0 mg/kg/injection, schedule: Q04DX003 (ip), vehicle: saline 102 % of control | dose: 400.0 mg/kg/injection, schedule: Q04DX003 (ip), vehicle: saline 98 % of control

CN(C)[C@@H]1C(=O)C(C(=O)NCNc2cccc(C(=O)O)c2C(=O)O)=C(O)[C@@]2(O)C(=O)C3=C(O)c4c(O)cccc4[C@@](C)(O)[C@H]3C[C@@H]12
inactive: dose: 100.0 mg/kg/injection, schedule: Q01DX Z (ip), vehicle: saline 110 % of control | dose: 150.0 mg/kg/injection, schedule: Q01DX Z (ip), vehicle: saline 105 % of control | dose: 225.0 mg/kg/injection, schedule: Q01DX Z (ip), vehicle: saline 104 % of control | dose: 340.0 mg/kg/injection, schedule: Q01DX Z (ip), vehicle: saline 103 % of control

CCCCC(OC(=O)c1ccc([N+](=O)[O-])cc1)C(C)[N+](=O)[O-] (centres undefined)
inactive: [11] 94 % of control | [12] 97 % of control | [13] 92 % of control

NC(=O)CCCCc1ccccc1
inactive: dose: 50.0 mg/kg/injection, schedule: Q01DX001 (ip), vehicle: saline with Tween-80 93 % of control | dose: 100.0 mg/kg/injection, schedule: Q01DX001 (ip), vehicle: saline with Tween-80 98 % of control | dose: 200.0 mg/kg/injection, schedule: Q01DX001 (ip), vehicle: saline with Tween-80 90 % of control

CCOC(=O)c1c(Cl)cc(C)nc1C
inactive: dose: 100.0 mg/kg/injection, schedule: Q04DX003 (ip), vehicle: saline with Tween-80 93 % of control | dose: 200.0 mg/kg/injection, schedule: Q04DX003 (ip), vehicle: saline with Tween-80 101 % of control | dose: 400.0 mg/kg/injection, schedule: Q04DX003 (ip), vehicle: saline with Tween-80 95 % of control

Cc1cccc(NC(=O)Cc2ccccc2)c1C
inactive: [1] 99 % of control | [2] 105 % of control | [3] 101 % of control

COc1ccccc1NC(=O)NCCO
inactive: [14] 103 % of control | [15] 95 % of control | [16] 103 % of control
